{
  "source": "ChEMBL document CHEMBL5550215",
  "about": "“Discovery of Novel Imidazo[1,2-a]pyridine-Based HDAC6 Inhibitors as an Anticarcinogen with a Cardioprotective Effect” (J Med Chem, 2024)",
  "key": {"H9c2 [1]": {"system": "H9c2", "test": "Protection against H2O2 induced myocardial cell injury in rat H9c2 cells at 10 uM pretreated for 24 hrs followed by H2O2 exposure and measured after 1.5 hrs (reference value: 17.91 to 57.32%)", "format": "functional", "conditions": "time 25.5 hrs"}, "HCT-116": {"system": "HCT-116", "test": "Antiproliferative activity against human HCT-116 cells assessed as inhibition of cell growth by MTT assay"}, "PANC-1": {"system": "PANC-1", "test": "Antiproliferative activity against human PANC-1 cells assessed as inhibition of cell growth by MTT assay"}, "[2]": {"test": "Half life in male Sprague-Dawley rat at 7 mg/kg,iv measured upto 8 hrs by UPLC-MS/MS analysis", "format": "ADME, organism-based", "conditions": "in vivo"}, "Histone deacetylase 1": {"target": "Histone deacetylase 1 (Homo sapiens, UniProt Q13547)", "sequence (Q13547 whole entry)": "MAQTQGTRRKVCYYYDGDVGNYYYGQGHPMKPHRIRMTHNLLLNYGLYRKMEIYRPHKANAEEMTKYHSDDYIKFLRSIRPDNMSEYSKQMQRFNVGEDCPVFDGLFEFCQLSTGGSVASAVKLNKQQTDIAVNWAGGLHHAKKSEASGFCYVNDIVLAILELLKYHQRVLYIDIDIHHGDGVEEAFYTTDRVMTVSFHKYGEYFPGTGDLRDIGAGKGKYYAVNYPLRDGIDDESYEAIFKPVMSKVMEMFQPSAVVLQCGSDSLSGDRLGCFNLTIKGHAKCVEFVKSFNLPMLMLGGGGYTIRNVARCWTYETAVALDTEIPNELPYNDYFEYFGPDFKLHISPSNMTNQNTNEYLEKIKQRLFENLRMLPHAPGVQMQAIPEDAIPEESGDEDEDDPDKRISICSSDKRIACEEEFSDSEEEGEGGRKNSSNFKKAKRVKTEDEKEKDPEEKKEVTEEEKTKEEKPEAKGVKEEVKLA", "test": "Inhibition of HDAC1 (unknown origin)"}, "[3]": {"test": "Cmax in male Sprague-Dawley rat at 7 mg/kg,iv measured upto 8 hrs by UPLC-MS/MS analysis", "format": "ADME, organism-based", "conditions": "in vivo"}, "[4]": {"test": "AUClast in male Sprague-Dawley rat at 7 mg/kg,iv measured upto 8 hrs by UPLC-MS/MS analysis", "format": "ADME, organism-based", "conditions": "in vivo"}, "[5]": {"test": "Observed apparent volume of distribution in male Sprague-Dawley rat at 7 mg/kg,iv measured upto 8 hrs by UPLC-MS/MS analysis", "format": "ADME, organism-based", "conditions": "in vivo, read-out: Vz"}, "[6]": {"test": "Observed clearance in male Sprague-Dawley rat at 7 mg/kg,iv measured upto 8 hrs by UPLC-MS/MS analysis", "format": "ADME, organism-based", "conditions": "in vivo"}, "[7]": {"test": "Tmax in male Sprague-Dawley rat at 7 mg/kg,po measured upto 8 hrs by UPLC-MS/MS analysis", "format": "ADME, organism-based", "conditions": "in vivo"}, "[8]": {"test": "Observed clearance in male Sprague-Dawley rat at 7 mg/kg,po measured upto 8 hrs by UPLC-MS/MS analysis", "format": "ADME, organism-based", "conditions": "in vivo"}, "MGC-803 [9]": {"system": "MGC-803", "test": "Antimetastatic activity in human MGC-803 cells", "format": "functional, cell-based", "conditions": "dose <= 2.0 µM"}, "MGC-803 [10]": {"system": "MGC-803", "test": "Induction of apoptosis in human MGC-803 cells assessed as viable cells at 0.5 uM measured after 48 hrs by Annexin V-EGFP and PI staining based flow cytometry analysis (reference value: 92.3%)", "format": "functional", "conditions": "read-out: Activity"}, "MGC-803 [11]": {"system": "MGC-803", "test": "Induction of apoptosis in human MGC-803 cells assessed as early apoptotic cells at 1 uM measured after 48 hrs by Annexin V-EGFP and PI staining based flow cytometry analysis (reference value: 0.66%)", "format": "functional"}, "MGC-803 [12]": {"system": "MGC-803", "test": "Induction of apoptosis in human MGC-803 cells assessed as late apoptotic cells at 0.5 uM measured after 48 hrs by Annexin V-EGFP and PI staining based flow cytometry analysis (reference value: 3.16%)", "format": "functional"}, "MGC-803 [13]": {"system": "MGC-803", "test": "Induction of apoptosis in human MGC-803 cells assessed as late apoptotic cells at 1 uM measured after 48 hrs by Annexin V-EGFP and PI staining based flow cytometry analysis (reference value: 3.16%)", "format": "functional"}, "MGC-803 [14]": {"system": "MGC-803", "test": "Induction of apoptosis in human MGC-803 cells assessed as increase in bax expression by Western blot analysis", "format": "functional, cell-based", "conditions": "dose <= 2.0 µM"}, "MGC-803 [15]": {"system": "MGC-803", "test": "Antitumor activity against human MGC-803 cells xenografted in […] mouse model assessed as suppression of tumor mass at 25 to 50 mg/kg, ip measured upto 21 days with continuous administration for 5 days followed by two days break", "format": "functional, organism-based", "conditions": "dose 25-50 mg/kg, time <= 21.0 day"}, "[16]": {"test": "Toxicity in C57BL/6 mouse assessed as effect on body weight at 25 to 50 mg/kg, ip measured after 21 days", "format": "organism-based", "conditions": "in vivo, 504 h, dose 25-50 mg/kg, time 21 day"}, "H9c2 [17]": {"system": "H9c2", "test": "Cardioprotective activity in H2O2 induced myocardial injury in rat H9c2 cells assessed as appearance of defined nuclear boundaries at 2 to 8 uM", "format": "functional, cell-based", "conditions": "dose 2-8 µM"}, "H9c2 [18]": {"system": "H9c2", "test": "Cardioprotective activity in H2O2 induced myocardial injury in rat H9c2 cells assessed as downregulation of IL-18 mRNA level at upto 8 uM by q-PCR analysis", "format": "functional, cell-based"}, "H9c2 [19]": {"system": "H9c2", "test": "Cardioprotective activity in H2O2 induced myocardial injury in rat H9c2 cells assessed as effect on beclin1 level at upto 8 uM by q-PCR analysis", "format": "functional, cell-based"}, "H9c2 [20]": {"system": "H9c2", "test": "Cardioprotective activity in H2O2 induced myocardial injury in rat H9c2 cells assessed as downregulation of IL-18 expression", "format": "functional, cell-based", "conditions": "dose <= 8.0 µM"}, "Mus musculus [21]": {"system": "Mus musculus", "test": "Cardioprotective activity against myocardial ischemia/reperfusion induced C57BL/6J mouse model assessed as reduction in ST-segment elevation at 2.5 to 10 mg/kg", "format": "functional, organism-based", "conditions": "dose 2.5-10 mg/kg"}, "Mus musculus [22]": {"system": "Mus musculus", "test": "Cardioprotective activity against myocardial ischemia/reperfusion induced C57BL/6J mouse model assessed as reduction in myocardial infarction area at 2.5 mg/kg (reference value: 72.19%)", "format": "functional", "parameters": "scale not given: the % may be the effect or the level left"}, "H9c2 [23]": {"system": "H9c2", "test": "Cardioprotective activity against H2O2 induced myocardial damage in rat H9c2 cells harbouring Ad.GFP assessed as decrease in LDH leakage rate at 8 uM by absorbance based analysis", "format": "functional, cell-based"}, "H9c2 [24]": {"system": "H9c2", "test": "Cardioprotective activity against H2O2 induced myocardial damage in rat H9c2 cells harbouring Ad.HDAC6 assessed as increase in cell viability at 8 uM by MTT assay", "format": "functional, cell-based"}, "H9c2 [25]": {"system": "H9c2", "test": "Cardioprotective activity against H2O2 induced myocardial damage in rat H9c2 cells harbouring Ad.HDAC6 assessed as reversal of IL-1 beta expression at 8 uM", "format": "functional, cell-based"}, "H9c2 [26]": {"system": "H9c2", "test": "Cardioprotective activity against H2O2 induced myocardial damage in rat H9c2 cells harbouring Ad.HDAC6 assessed as reversal of IL-18 expression at 8 uM", "format": "functional, cell-based"}},
  "note": "Active and inactive are the calls of the source. No cut-off for these calls is given here.",
  "data": [
    {"smiles": "O=C(NO)c1ccc(CNC(=O)c2cc(-c3ccc(F)cc3)cn3ccnc23)cc1", "values": [
      {"measurement": "Activity", "setting": "H9c2 [1]", "result": 66.13, "unit": "%"},
      {"measurement": "IC50", "setting": "HCT-116", "result": "> 10", "unit": "µM"},
      {"measurement": "IC50", "setting": "PANC-1", "result": 3.79, "unit": "µM"},
      {"measurement": "half-life", "setting": "[2]", "result": 2.19, "unit": "h"},
      {"measurement": "IC50", "setting": "Histone deacetylase 1", "result": 0.0031, "unit": "µM"},
      {"measurement": "Cmax", "setting": "[3]", "result": 807, "unit": "ng/mL"},
      {"measurement": "AUC(0-t) at 8 h", "setting": "[4]", "result": 740, "unit": "ng·h/mL"},
      {"measurement": "Vd", "setting": "[5]", "result": 25.5, "unit": "L/kg"},
      {"measurement": "clearance", "setting": "[6]", "result": 134, "unit": "mL/min/kg"},
      {"measurement": "Tmax", "setting": "[7]", "result": 1, "unit": "h"},
      {"measurement": "CL/F", "setting": "[8]", "result": 1590, "unit": "mL/min/kg"},
      {"measurement": "Activity", "setting": "MGC-803 [9]", "result": "Dose-Dependent Effect"},
      {"measurement": "viability at 0.5 µM", "setting": "MGC-803 [10]", "result": 70.5, "unit": "%"},
      {"measurement": "Activity", "setting": "MGC-803 [11]", "result": 0.48, "unit": "%"},
      {"measurement": "Activity", "setting": "MGC-803 [12]", "result": 15, "unit": "%"},
      {"measurement": "Activity", "setting": "MGC-803 [13]", "result": 17.6, "unit": "%"},
      {"measurement": "Activity", "setting": "MGC-803 [14]", "result": "Dose-Dependent Effect"},
      {"measurement": "Activity", "setting": "MGC-803 [15]", "result": "Active"},
      {"measurement": "Activity", "setting": "[16]", "result": "Non-Toxic"},
      {"measurement": "Activity", "setting": "H9c2 [17]", "result": "Active"},
      {"measurement": "Activity", "setting": "H9c2 [18]", "result": "Active"},
      {"measurement": "Activity", "setting": "H9c2 [19]", "result": "inactive"},
      {"measurement": "Activity", "setting": "H9c2 [20]", "result": "Dose-Dependent Effect"},
      {"measurement": "Activity", "setting": "Mus musculus [21]", "result": "Active"},
      {"measurement": "Activity", "setting": "Mus musculus [22]", "result": 59.66, "unit": "%"},
      {"measurement": "Activity", "setting": "H9c2 [23]", "result": "Active"},
      {"measurement": "Activity", "setting": "H9c2 [24]", "result": "Active"},
      {"measurement": "Activity", "setting": "H9c2 [25]", "result": "Active"},
      {"measurement": "Activity", "setting": "H9c2 [26]", "result": "Active"}
    ]}
  ]
}
